In ChEMBL document CHEMBL4507304, “Data for DCP probe TP-021” (2021):

What was measured:
[1] = molecular target: Serine/threonine-protein kinase 35 (Homo sapiens) (UniProt Q8TDR2); details: Compound concentration 1000.0 nM
[2] = molecular target: 5-hydroxytryptamine receptor 2C (Homo sapiens) (UniProt P28335); details: Compound concentration 10.0 uM
[3] = molecular target: Serine/threonine-protein kinase 17B (Homo sapiens) (UniProt O94768); details: Compound concentration 1000.0 nM
[4] = molecular target: Interferon-induced, double-stranded RNA-activated protein kinase (Homo sapiens) (UniProt P19525); details: Compound concentration 1000.0 nM
[5] = test system: Tyrosine-protein kinase ABL1 (Homo sapiens), P00519 [Q252H]; details: Compound concentration 1000.0 nM
[6] = molecular target: Serine/threonine-protein kinase 38-like (Homo sapiens) (UniProt Q9Y2H1); details: Compound concentration 1000.0 nM
[7] = molecular target: MAP kinase-activated protein kinase 2 (Homo sapiens) (UniProt P49137); details: Compound concentration 1000.0 nM
[8] = test system: Epidermal growth factor receptor (Homo sapiens), P00533 [G719S]; details: Compound concentration 1000.0 nM
[9] = molecular target: Serine/threonine-protein kinase MRCK alpha (Homo sapiens) (UniProt Q5VT25); details: Compound concentration 1000.0 nM
[10] = test system: Tyrosine-protein kinase ABL1 (Homo sapiens), P00519 [Q252H]; details: Compound concentration 1000.0 nM; remark: listed apart in the source
[11] = molecular target: Muscle, skeletal receptor tyrosine-protein kinase (Homo sapiens) (UniProt O15146); details: Compound concentration 1000.0 nM
[12] = molecular target: Serine/threonine-protein kinase NIM1 (Homo sapiens) (UniProt Q8IY84); details: Compound concentration 1000.0 nM
[13] = molecular target: Rho-associated protein kinase 2 (Homo sapiens) (UniProt O75116); details: Compound concentration 1000.0 nM
[14] = molecular target: Serine/threonine-protein kinase TAO3 (Homo sapiens) (UniProt Q9H2K8); details: Compound concentration 1000.0 nM
[15] = molecular target: Phosphatidylinositol 4,5-bisphosphate 3-kinase catalytic subunit delta isoform (Homo sapiens) (UniProt O00329); details: Compound concentration 1000.0 nM
[16] = molecular target: D(1B) dopamine receptor (Homo sapiens) (UniProt P21918); details: Compound concentration 10.0 uM
[17] = molecular target: Serine/threonine-protein kinase Nek3 (Homo sapiens) (UniProt P51956); details: Compound concentration 1000.0 nM
[18] = molecular target: D(2) dopamine receptor (Homo sapiens) (UniProt P14416); details: Compound concentration 10.0 uM
[19] = molecular target: Alpha-1A adrenergic receptor (Homo sapiens) (UniProt P35348); details: Compound concentration 10.0 uM
[20] = molecular target: Beta-3 adrenergic receptor (Homo sapiens) (UniProt P13945); details: Compound concentration 10.0 uM

Sequence of Serine/threonine-protein kinase TAO3 (Homo sapiens) (Q9H2K8 whole entry, canonical isoform): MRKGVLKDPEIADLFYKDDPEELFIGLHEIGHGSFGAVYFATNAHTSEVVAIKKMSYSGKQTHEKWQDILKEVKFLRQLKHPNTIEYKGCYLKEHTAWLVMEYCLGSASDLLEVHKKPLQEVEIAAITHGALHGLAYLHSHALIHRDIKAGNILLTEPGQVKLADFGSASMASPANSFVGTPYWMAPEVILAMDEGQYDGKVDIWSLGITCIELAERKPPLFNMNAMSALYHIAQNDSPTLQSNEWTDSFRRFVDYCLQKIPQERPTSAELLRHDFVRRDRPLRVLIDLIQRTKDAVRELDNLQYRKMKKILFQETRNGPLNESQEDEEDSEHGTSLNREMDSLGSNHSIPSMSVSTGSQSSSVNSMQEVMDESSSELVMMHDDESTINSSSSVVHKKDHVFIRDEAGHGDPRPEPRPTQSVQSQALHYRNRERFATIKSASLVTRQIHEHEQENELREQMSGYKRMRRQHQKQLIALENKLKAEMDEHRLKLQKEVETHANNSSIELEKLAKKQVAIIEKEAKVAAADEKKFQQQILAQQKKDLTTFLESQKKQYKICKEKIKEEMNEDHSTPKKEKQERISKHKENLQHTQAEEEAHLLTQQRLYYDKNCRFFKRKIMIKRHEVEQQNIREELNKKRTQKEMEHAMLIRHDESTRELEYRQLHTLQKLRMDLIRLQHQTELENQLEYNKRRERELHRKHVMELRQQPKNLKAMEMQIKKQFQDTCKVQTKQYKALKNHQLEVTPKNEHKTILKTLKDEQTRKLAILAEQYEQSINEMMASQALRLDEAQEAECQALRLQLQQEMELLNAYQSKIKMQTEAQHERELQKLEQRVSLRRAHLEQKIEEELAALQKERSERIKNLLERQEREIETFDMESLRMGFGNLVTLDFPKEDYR
Sequence of Serine/threonine-protein kinase NIM1 (Homo sapiens) (Q8IY84 whole entry): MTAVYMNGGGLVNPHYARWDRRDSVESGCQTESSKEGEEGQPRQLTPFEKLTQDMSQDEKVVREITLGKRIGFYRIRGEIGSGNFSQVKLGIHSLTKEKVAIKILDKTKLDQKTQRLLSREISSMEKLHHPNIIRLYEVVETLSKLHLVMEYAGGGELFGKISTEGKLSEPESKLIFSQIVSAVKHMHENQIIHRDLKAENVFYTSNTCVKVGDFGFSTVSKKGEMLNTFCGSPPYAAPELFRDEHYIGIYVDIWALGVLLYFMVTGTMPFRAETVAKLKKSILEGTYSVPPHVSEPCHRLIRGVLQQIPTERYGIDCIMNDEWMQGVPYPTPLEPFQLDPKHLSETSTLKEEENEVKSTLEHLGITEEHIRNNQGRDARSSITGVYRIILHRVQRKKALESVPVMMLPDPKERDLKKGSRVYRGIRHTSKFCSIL
Sequence of Rho-associated protein kinase 2 (Homo sapiens) (O75116 whole entry, looked up): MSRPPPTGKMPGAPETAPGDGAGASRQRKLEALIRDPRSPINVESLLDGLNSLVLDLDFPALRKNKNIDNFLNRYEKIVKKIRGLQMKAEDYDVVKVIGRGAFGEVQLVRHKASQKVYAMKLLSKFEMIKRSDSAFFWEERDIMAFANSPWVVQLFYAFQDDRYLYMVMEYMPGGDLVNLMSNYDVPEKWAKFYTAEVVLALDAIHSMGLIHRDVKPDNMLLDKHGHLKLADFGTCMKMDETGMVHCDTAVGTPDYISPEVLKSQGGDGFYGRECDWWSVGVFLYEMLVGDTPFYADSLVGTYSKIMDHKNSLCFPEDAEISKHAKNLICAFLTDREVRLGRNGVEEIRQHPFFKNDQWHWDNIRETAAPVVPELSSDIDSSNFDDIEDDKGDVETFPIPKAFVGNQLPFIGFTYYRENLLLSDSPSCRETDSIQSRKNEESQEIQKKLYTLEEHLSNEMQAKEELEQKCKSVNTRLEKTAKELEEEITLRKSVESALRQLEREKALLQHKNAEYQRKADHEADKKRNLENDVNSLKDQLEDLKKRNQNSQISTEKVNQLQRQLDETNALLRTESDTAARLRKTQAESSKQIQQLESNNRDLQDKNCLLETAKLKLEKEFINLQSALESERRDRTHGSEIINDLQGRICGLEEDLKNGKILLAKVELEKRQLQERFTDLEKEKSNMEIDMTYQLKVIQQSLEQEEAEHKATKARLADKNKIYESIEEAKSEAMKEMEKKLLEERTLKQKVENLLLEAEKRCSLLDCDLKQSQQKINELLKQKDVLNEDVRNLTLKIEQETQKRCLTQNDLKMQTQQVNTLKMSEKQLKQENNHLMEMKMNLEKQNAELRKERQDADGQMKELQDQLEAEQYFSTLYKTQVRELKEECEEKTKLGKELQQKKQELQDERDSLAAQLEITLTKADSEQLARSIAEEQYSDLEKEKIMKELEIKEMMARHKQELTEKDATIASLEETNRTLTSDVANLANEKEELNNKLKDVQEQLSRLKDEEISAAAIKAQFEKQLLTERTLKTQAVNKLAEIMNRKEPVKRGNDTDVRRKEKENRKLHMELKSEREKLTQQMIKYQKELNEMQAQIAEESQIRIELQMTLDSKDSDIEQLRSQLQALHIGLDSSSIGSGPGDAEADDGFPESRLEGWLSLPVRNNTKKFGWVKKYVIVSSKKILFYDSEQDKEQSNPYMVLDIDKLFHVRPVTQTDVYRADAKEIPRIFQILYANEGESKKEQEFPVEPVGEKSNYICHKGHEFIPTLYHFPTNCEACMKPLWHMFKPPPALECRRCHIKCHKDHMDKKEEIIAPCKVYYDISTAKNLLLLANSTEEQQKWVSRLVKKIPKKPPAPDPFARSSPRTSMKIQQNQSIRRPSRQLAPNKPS
Sequence of MAP kinase-activated protein kinase 2 (Homo sapiens) (P49137 whole entry, looked up): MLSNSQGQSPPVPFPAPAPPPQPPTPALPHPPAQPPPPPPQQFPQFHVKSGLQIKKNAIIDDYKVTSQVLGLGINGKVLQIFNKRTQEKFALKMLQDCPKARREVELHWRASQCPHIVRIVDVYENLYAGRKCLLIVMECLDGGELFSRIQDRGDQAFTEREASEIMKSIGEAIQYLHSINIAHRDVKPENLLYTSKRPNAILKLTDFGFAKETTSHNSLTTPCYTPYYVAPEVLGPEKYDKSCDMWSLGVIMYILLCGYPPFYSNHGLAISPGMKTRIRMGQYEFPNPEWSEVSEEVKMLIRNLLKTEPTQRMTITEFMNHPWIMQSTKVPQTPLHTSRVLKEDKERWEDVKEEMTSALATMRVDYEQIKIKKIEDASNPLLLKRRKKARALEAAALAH
Sequence of Serine/threonine-protein kinase 35 (Homo sapiens) (Q8TDR2 whole entry): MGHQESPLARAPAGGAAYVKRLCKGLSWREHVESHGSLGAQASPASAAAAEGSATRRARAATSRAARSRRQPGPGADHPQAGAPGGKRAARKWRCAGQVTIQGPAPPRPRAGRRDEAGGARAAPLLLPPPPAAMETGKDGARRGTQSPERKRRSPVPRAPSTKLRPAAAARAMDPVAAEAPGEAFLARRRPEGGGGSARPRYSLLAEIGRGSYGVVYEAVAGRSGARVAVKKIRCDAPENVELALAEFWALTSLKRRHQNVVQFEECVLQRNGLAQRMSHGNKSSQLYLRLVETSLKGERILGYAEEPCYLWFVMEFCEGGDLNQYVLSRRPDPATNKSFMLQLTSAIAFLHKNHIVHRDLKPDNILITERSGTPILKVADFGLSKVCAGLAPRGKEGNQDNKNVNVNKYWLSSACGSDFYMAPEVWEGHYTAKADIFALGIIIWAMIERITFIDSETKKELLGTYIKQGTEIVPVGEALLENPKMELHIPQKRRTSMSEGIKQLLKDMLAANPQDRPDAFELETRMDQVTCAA
Sequence of Muscle, skeletal receptor tyrosine-protein kinase (Homo sapiens) (O15146 whole entry): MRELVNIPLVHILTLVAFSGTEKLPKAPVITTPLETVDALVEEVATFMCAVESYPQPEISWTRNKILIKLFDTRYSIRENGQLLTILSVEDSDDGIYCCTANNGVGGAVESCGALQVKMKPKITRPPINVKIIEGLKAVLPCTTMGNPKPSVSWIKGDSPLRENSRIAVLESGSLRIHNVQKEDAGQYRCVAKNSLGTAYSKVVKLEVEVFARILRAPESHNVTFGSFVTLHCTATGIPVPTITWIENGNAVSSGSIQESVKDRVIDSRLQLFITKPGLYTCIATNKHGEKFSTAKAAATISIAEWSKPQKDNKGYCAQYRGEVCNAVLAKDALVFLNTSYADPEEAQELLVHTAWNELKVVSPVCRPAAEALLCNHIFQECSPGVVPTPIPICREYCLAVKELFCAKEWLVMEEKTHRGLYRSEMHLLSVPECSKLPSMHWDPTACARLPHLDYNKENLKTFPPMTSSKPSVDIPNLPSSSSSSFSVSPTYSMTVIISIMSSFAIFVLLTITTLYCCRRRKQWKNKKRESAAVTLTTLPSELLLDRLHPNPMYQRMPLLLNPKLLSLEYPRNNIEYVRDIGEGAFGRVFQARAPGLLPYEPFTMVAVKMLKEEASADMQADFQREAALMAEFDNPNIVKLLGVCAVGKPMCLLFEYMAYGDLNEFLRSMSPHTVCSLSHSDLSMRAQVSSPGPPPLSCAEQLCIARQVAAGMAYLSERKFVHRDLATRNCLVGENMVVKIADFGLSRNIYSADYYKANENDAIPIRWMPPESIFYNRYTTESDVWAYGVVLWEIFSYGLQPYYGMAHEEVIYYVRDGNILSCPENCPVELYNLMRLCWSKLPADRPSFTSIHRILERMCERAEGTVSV
Sequence of Serine/threonine-protein kinase 17B (Homo sapiens) (O94768 whole entry): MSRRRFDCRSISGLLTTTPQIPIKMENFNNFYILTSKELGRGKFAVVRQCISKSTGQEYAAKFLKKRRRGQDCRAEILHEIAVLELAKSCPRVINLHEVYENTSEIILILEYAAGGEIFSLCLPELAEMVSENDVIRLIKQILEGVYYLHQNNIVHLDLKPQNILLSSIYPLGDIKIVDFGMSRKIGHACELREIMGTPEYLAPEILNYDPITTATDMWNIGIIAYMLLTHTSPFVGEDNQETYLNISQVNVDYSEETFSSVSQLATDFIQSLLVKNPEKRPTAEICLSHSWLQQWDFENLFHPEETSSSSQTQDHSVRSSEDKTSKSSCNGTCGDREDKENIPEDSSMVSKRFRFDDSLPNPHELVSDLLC

N#Cc1ccc(Nc2ccc3[nH]c(=O)[nH]c3c2)c(Cl)c1
inactive: residual activity [1] 100% | inhibition [2] -9.96% | residual activity [3] 100% | residual activity [4] 57% | residual activity [5] 100% | residual activity [6] 53% | residual activity [7] 100% | residual activity [8] 100% | residual activity [9] 100% | residual activity [10] 89% | residual activity [11] 100% | residual activity [12] 100% | residual activity [13] 100% | residual activity [14] 100%

O=C1CCc2cc(Nc3cc(OC4CCOCC4)c([N+](=O)[O-])cc3Cl)ccc2N1
inactive: residual activity [1] 100% | residual activity [3] 100% | residual activity [5] 100% | residual activity [7] 99% | residual activity [15] 94% | inhibition [16] 13% | residual activity [17] 100% | residual activity [8] 100% | residual activity [9] 91% | residual activity [10] 79% | inhibition [18] 2.86% | residual activity [11] 100% | residual activity [12] 100% | residual activity [13] 100% | inhibition [19] -8.76% | inhibition [20] 7.73% | residual activity [14] 81%
